Experimental data reported in patent US8802674B2, “Aminopyrimidine derivatives as LRRK2 modulators” (Genentech, Inc., priority 2011, dated 2014).

molecular target: LRRK2 (Homo sapiens (Human), UniProt Q5S007, G2019S); assay: In Vitro LRRK2 LabChip Assay; type: biochemical; conditions: Table 4
How it was run: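 Potency (Ki in μM, IC50 or % inhibition) derived from capillary-electrophoresis separation of phospho- and unphosphorylated fluorescent peptide, with Ki fitted by a tight-binding model.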

LRRK2, sequence (Q5S007 970-2527 G2019S limits assumed): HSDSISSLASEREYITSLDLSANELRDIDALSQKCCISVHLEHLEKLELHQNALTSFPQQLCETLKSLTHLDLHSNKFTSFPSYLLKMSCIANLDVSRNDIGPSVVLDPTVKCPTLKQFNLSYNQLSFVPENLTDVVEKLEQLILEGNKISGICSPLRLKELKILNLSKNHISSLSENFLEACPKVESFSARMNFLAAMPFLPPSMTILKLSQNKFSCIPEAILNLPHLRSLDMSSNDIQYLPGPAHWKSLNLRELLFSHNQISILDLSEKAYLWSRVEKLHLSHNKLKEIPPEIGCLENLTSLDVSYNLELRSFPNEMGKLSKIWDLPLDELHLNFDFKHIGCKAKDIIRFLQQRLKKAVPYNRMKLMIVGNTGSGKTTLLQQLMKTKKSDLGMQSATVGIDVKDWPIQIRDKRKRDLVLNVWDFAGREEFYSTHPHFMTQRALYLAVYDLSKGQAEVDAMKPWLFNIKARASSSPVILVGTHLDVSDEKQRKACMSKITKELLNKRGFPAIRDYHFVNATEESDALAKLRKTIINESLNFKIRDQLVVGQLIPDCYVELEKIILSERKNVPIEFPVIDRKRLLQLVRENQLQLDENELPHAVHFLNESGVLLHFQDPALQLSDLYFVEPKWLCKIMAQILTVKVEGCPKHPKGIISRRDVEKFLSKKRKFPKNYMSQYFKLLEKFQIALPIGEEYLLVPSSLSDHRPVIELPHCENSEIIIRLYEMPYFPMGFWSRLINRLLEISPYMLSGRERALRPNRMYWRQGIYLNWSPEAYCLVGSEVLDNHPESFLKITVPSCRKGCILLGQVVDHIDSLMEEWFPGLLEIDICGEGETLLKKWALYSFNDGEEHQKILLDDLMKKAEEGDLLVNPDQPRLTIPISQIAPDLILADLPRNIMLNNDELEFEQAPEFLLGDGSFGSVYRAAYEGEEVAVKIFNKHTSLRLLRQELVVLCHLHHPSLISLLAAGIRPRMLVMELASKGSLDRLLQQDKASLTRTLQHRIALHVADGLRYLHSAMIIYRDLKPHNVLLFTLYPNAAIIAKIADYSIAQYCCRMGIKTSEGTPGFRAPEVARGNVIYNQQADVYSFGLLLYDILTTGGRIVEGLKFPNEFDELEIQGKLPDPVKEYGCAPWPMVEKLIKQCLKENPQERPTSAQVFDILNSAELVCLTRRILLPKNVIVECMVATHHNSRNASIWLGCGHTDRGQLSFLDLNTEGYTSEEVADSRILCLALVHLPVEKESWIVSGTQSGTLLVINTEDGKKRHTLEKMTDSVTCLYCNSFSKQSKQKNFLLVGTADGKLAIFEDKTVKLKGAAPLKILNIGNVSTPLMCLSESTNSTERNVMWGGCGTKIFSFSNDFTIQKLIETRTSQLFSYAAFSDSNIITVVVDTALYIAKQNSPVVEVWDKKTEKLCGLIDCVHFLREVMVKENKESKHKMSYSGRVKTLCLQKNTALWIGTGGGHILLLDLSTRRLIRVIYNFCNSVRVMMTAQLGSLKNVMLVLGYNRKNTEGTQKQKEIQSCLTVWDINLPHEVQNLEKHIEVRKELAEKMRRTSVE

| SMILES | Ki [nM] |
| --- | --- |
| CNc1nc(Nc2ccc(C(=O)N3CCOCC3)cc2OC)ncc1C1CC1 [Example 103, [4-(5-Cyclopropyl-4-methylamino-pyrimidin-2-ylamino)-3-methoxy-phenyl]-morpholin-4-yl-methanone] | 89.5 |
| CNc1nc(Nc2cc(OC)c(C(=O)N3C[C@@H](C)N[C@@H](C)C3)cc2Cl)ncc1Cl [Example 172, [5-Chloro-4-(5-chloro-4-methylamino-pyrimidin-2-ylamino)-2-methoxy-phenyl]-((3R,5S)-dimethyl-piperazin-1-yl)-methanone] | 33.3 |
| CNc1nc(Nc2ccc(C(=O)N3CCC(F)C3)cc2OC)ncc1C#N (stereo in doubt) [Example 210, 2-[4-((R)-3-Fluoropyrrolidine-1-carbonyl)-2-methoxy-phenylamino]-4-methylamino-pyrimidine-5-carbonitrile] | 9.3 |
| CNc1nc(Nc2ccc(C(=O)N3CCN(S(C)(=O)=O)CC3)cc2OC)ncc1Cl [Example 33, [4-(5-Chloro-4-methylamino-pyrimidin-2-ylamino)-3-methoxy-phenyl]-(4-methanesulfonyl-piperazin-1-yl)-methanone] | 3.6 |
| CNc1nc(Nc2cc(OC)c(C(=O)N3CCC(N(C)C)CC3)cc2Cl)ncc1Cl [Example 151, [5-Chloro-4-(5-chloro-4-methylamino-pyrimidin-2-ylamino)-2-methoxy-phenyl]-(4-dimethylamino-piperidin-1-yl)-methanone] | 2.8 |
| COCCNc1nc(Nc2ccc(C(=O)N3CCOCC3)cc2OC(C)C)ncc1Br [Example 186, {4-[5-Bromo-4-(2-methoxy-ethylamino)-pyrimidin-2-ylamino]-3-isopropoxy-phenyl}-morpholin-4-yl-methanone] | 13.5 |
| CNc1nc(Nc2ccc(C(=O)N3CCOCC3)cc2OC(C)C)ncc1Cl [Example 79, [4-(5-Chloro-4-methylamino-pyrimidin-2-ylamino)-3-isopropoxy-phenyl]-morpholin-4-yl-methanone] | 15.6 |
| CNc1nc(Nc2cc(OC)c(C(=O)N3CCC(C#N)CC3)cc2Cl)ncc1Cl [Example 167, l-[5-Chloro-4-(5-chloro-4-methylamino-pyrimidin-2-ylamino)-2-methoxy-benzoyl]-piperidine-4-carbonitrile] | 3.3 |
| CNc1nc(Nc2ccc(C(=O)NC(C)C)cc2OC)ncc1Cl [Example 53, 4-(5-Chloro-4-methylamino-pyrimidin-2-ylamino)-N-isopropyl-3-methoxy-benzamide] | 2 |
| COCCNc1nc(Nc2cc(F)c(C(=O)N3CCOCC3)cc2OC)ncc1Br [Example 185, {4-[5-Bromo-4-(2-methoxy-ethylamino)-pyrimidin-2-ylamino]-2-fluoro-5-methoxy-phenyl}-morpholin-4-yl-methanone] | 6.9 |
| CCN(CC)C(=O)c1ccc(Nc2ncc(C#N)c(NC)n2)c(OC)c1 [Example 199, 4-(5-Cyano-4-methylamino-pyrimidin-2-ylamino)-N,N-diethyl-3-methoxy-benzamide] | 6.8 |
| [2H]C1([2H])OC([2H])([2H])C([2H])([2H])N(C(=O)c2cc(Cl)c(Nc3ncc(C(F)(F)F)c(NC)n3)cc2OC)C1([2H])[2H] [Example 236, (5-chloro-2-methoxy-4-(4-(methylamino)-5-(trifluoromethyl)pyrimidin-2-ylamino)phenyl) (perdeuteromorpholino) methanone] | 4.2 |
| CNc1nc(Nc2ccc(C(=O)N3CCOCC3)cc2C)ncc1Cl [Example 232, (4-(5-chloro-4-(methylamino)pyrimidin-2-ylamino)-3-methylphenyl) (morpholino) methanone] | 7.4 |
| COc1cc(C(=O)N2CCOCC2)ccc1Nc1ncc(Cl)c(NC2CCC2)n1 [Example 81, [4-(5-Chloro-4-cyclobutylamino-pyrimidin-2-ylamino)-3-methoxy-phenyl]-morpholin-4-yl-methanone] | 1.5 |
| COc1cc(C(=O)N2CCOCC2)ccc1Nc1ncc(Cl)c(NCCS(C)(=O)=O)n1 [Example 219, {4-[5-Chloro-4-(2-methanesulfonyl-ethylamino)-pyrimidin-2-ylamino]-3-methoxy-phenyl}-morpholin-4-yl-methanone] | 26.4 |
| CCN(C(=O)c1ccc(Nc2ncc(C#N)c(NC)n2)c(OC)c1)C(C)C [Example 207, 4-(5-Cyano-4-methylamino-pyrimidin-2-ylamino)-N-ethyl-N-isopropyl-3-methoxy-benzamide] | 5.4 |
| CNc1nc(Nc2ccc(C(=O)N3CCNCC3)cc2OC)ncc1Cl [Example 47, [4-(5-Chloro-4-methylamino-pyrimidin-2-ylamino)-3-methoxy-phenyl]-piperazin-1-yl-methanone] | 2.8 |
| CNc1nc(Nc2cc(F)c(C(=O)N3CCC(OC)C3)cc2OC)ncc1C(F)(F)F (centres unmarked) [Example 247, (2-fluoro-5-methoxy-4-(4-(methylamino)-5-(trifluoromethyl)pyrimidin-2-ylamino)phenyl)(3-methoxypyrrolidin-1-yl)methanone] | 2.7 |

same assay, conditions: Table 5

| SMILES | Ki [nM] |
| --- | --- |
| COc1cc(C(=O)N2CCOCC2)ccc1Nc1ncc(C(F)(F)F)c(OC)n1 [Example 263, [3-Methoxy-4-(4-methoxy-5-trifluoromethyl-pyrimidin-2-ylamino)-phenyl]-morpholin-4-yl-methanone] | 20 |

same assay, conditions: Table 6

| SMILES | Ki [nM] |
| --- | --- |
| CNc1nc(Nc2ccc(C(=O)N3CCOCC3)cc2OC2COC2)ncc1Cl [Example 284, [4-(5-Chloro-4-methylamino-pyrimidin-2-ylamino)-3-(oxetan-3-yloxy)-phenyl]-morpholin-4-yl-methanone] | 12.8 |
| CNc1nc(Nc2ccc(C(=O)NC3COC3)cc2OC)ncc1C(F)(F)F [Example 271, 3-Methoxy-4-(4-methylamino-5-trifluoromethyl-pyrimidin-2-ylamino)-N-oxetan-3-yl-benzamide] | 3.7 |
| CNc1nc(Nc2cc(OC)c(C(=O)NC3(C#N)CC3)cc2Cl)ncc1C(F)(F)F [Example 265, 5-Chloro-N-(1-cyano-cyclopropyl)-2-methoxy-4-(4-methylamino-5-trifluoromethyl-pyrimidin-2-ylamino)-benzamide] | 4.2 |
| CNc1nc(Nc2ccc(C(=O)N3CCC(N(C)C)CC3)cc2OC)ncc1C(F)(F)F [Example 276, (4-Dimethylamino-piperidin-1-yl)-[3-methoxy-4-(4-methylamino-5-trifluoromethyl-pyrimidin-2-ylamino)-phenyl]-methanone] | 0.8 |
| CNc1nc(Nc2cc(F)c(C(=O)N3CCC[C@H]3COC)cc2OC)ncc1C(F)(F)F [Example 305, [2-Fluoro-5-methoxy-4-(4-methylamino-5-trifluoromethyl-pyrimidin-2-ylamino)-phenyl]-((S)-2-methoxymethyl-pyrrolidin-1-yl)-methanone] | 3 |

same assay, conditions: Table 7

| SMILES | Ki [nM] |
| --- | --- |
| CCNc1nc(Nc2cc(F)c(C(=O)N3CCOCC3)cc2OC)ncc1C#N [Example 316, 4-Ethylamino-2-[5-fluoro-2-methoxy-4-(morpholine-4-carbonyl)-phenylamino]-pyrimdine-5-carbonitrile] | 6.5 |
| CNc1nc(Nc2cc(F)c(C(=O)N3C[C@@H](C)O[C@@H](C)C3)cc2OC)ncc1C#N [Example 318, 2-[4-((2R,6S)-2,6-Dimethyl-morpholine-4-carbonyl)-5-fluoro-2-methoxy-phenylamino]-4-methylamino-pyrimidine-5-carbonitrile] | 36.8 |
